Results: patent US20240209028A1, “CNP COMPOUNDS” (priority 2022, published 2024)
Starred links: 1 amine or outer side, 2 acyl side, 3 side chain; linkers in the order of their positions; H or OH if unused. Positions of bridges follow the written chain, without caps; N, C: chain ends. Residues, ends and D or L forms follow the SMILES beside them. *: point of attachment. C18 diacid = O=C(O)CCCCCCCCCCCCCCCCC(=O)*; γGlu = O=C(O)[C@H](CCC(=O)[*:2])N[*:1]; AEEA = NCCOCCOCC(=O)O

target: T1, human natriuretic peptide receptor 2 (hNPR2) (Homo sapiens, UniProt P20594); assay: In vitro hNPR2 activity assay (cGMP GloSensor reporter, HEK293); type: cell-based; conditions: potency relative to CNP22 (0065)
T1 construct: expressed in transfected cells; host or cells: HEK293 (ATCC CRL-1573), clone 35, co-transfected with pGloSensor-42F
T1 sequence (P20594 23-1047): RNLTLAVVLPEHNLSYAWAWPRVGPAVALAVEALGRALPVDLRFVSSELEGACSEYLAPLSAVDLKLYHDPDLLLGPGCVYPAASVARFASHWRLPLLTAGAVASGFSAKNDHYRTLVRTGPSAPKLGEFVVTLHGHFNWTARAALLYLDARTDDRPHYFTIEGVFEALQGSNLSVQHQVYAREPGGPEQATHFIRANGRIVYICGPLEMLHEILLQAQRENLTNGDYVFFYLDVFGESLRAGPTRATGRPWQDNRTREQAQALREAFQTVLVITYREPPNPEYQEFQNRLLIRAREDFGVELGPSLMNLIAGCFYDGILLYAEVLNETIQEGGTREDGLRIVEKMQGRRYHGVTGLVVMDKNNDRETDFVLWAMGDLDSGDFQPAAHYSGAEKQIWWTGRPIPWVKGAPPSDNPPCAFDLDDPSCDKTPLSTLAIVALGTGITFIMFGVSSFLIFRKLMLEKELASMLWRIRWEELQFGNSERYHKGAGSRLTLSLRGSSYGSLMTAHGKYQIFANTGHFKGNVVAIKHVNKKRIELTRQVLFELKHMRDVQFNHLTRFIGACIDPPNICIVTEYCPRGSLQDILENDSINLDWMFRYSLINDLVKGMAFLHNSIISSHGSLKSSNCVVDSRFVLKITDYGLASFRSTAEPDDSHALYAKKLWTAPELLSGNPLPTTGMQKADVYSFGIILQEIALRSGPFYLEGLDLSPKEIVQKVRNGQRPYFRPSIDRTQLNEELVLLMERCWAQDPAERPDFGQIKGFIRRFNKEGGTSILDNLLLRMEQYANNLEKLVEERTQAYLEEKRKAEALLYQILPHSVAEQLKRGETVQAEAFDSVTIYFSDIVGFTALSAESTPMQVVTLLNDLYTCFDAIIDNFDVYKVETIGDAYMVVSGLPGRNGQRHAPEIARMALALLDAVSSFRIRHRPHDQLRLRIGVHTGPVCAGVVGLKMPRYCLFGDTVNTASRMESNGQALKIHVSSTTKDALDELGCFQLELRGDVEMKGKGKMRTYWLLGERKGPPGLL
Procedure, shortened: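 Potency is the EC50 from a four-parameter logistic fit, also expressed relative to the in-plate CNP22 control (×100), with at least two replicates. Compounds (ten concentrations, […], HSA-free diluent with 1% OVA, 0.01% Tween20) were incubated 30 min at 37 °C on HEK293 cells co-expressing hNPR2 and a GloSensor cGMP luciferase. Luminescence detected with Bright-Glo.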

**Q.** How did the “hNPR2 0% HSA. [EC50% rel CNP]” value turn out when `CC[C@H](C)[C@@H]1NC(=O)[C@H](CCCNC(=N)N)NC(=O)[C@H](CC(=O)O)NC(=O)[C@H](CC(C)C)NC(=O)[C@@H]2CCCN2C(=O)[C@H](CC(C)C)NC(=O)CNC(=O)[C@H](Cc2ccccc2)NC(=O)[C@@H](NC(=O)CNC(=O)[C@H](CCC(N)=O)NC(=O)[C@H](CO)NC(=O)[C@H](CC(C)C)NC(=O)CNC(=O)[C@H](CCCCN)NC(=O)[C@H](CCCCN)NC(=O)[C@H](CCC(N)=O)NC(=O)[C@H](C)NC(=O)CNC(=O)[C@@H]2CCCN2C(=O)[C@H](C)NC(=O)[C@H](CCC(N)=O)NC(=O)CNC(=O)COCCOCCNC(=O)COCCOCCNC(=O)CC[C@H](NC(=O)CCCCCCCCCCCCCCCCC(=O)O)C(=O)O)CSSC[C@@H](C(=O)O)NC(=O)CNC(=O)[C@H](CC(C)C)NC(=O)CNC(=O)[C@H](CO)NC(=O)[C@H](CC(C)C)NC(=O)[C@H](CO)NC(=O)CNC1=O` [compound 1484] ({C18 diacid-γGlu-AEEA-AEEA}-GQAPGAQKKGLSQGCFGLPLDRIGSLSGLGC-OH; disulfide 15-31; C-terminus assumed) was run?
**A.** 27.9%

**Q.** Which “hNPR2 0% HSA. [EC50% rel CNP]” value does the source give for `CC[C@H](C)[C@@H]1NC(=O)[C@H](CCCNC(=N)N)NC(=O)[C@H](CC(=O)O)NC(=O)[C@H](CC(C)C)NC(=O)[C@@H]2CCCN2C(=O)[C@H](CC(C)C)NC(=O)CNC(=O)[C@H](Cc2ccccc2)NC(=O)[C@@H](NC(=O)CNC(=O)[C@H](CCC(N)=O)NC(=O)[C@H](CO)NC(=O)[C@H](CC(C)C)NC(=O)CNC(=O)[C@H](CCCCN)NC(=O)[C@H](CCCCN)NC(=O)[C@H](CCC(N)=O)NC(=O)[C@H](C)NC(=O)CNC(=O)[C@H](CCCCN)NC(=O)[C@H](Cc2ccc(O)cc2)NC(=O)[C@H](CCCCN)NC(=O)[C@H](CCCNC(=N)N)NC(=O)[C@H](C)NC(=O)COCCOCCNC(=O)COCCOCCNC(=O)COCCOCCNC(=O)COCCOCCNC(=O)CC[C@H](NC(=O)CC[C@H](NC(=O)CC[C@H](NC(=O)CC[C@H](NC(=O)CC[C@H](NC(=O)CCCCCCCCCCCCCCCCC(=O)O)C(=O)O)C(=O)O)C(=O)O)C(=O)O)C(=O)O)CSSC[C@@H](C(=O)O)NC(=O)CNC(=O)[C@H](CC(C)C)NC(=O)CNC(=O)[C@H](CO)NC(=O)[C@H](CC(C)C)NC(=O)[C@H](CO)NC(=O)CNC1=O` [compound 9407] ({C18 diacid-γGlu-γGlu-γGlu-γGlu-γGlu-AEEA-AEEA-AEEA-AEEA}-ARKYKGAQKKGLSQGCFGLPLDRIGSLSGLGC-OH; disulfide 16-32) here?
**A.** 38.6%

**Q.** For `CC[C@H](C)[C@@H]1NC(=O)[C@H](CCCNC(=N)N)NC(=O)[C@H](CC(=O)O)NC(=O)[C@H](CC(C)C)NC(=O)[C@@H]2CCCN2C(=O)[C@H](CC(C)C)NC(=O)CNC(=O)[C@H](Cc2ccccc2)NC(=O)[C@@H](NC(=O)CNC(=O)[C@H](CCC(N)=O)NC(=O)[C@H](CO)NC(=O)[C@H](CC(C)C)NC(=O)CNC(=O)[C@H](CCCCN)NC(=O)[C@H](CCCCN)NC(=O)[C@H](CCC(N)=O)NC(=O)[C@H](C)NC(=O)CNC(=O)[C@H](CCCCN)NC(=O)[C@H](Cc2ccc(O)cc2)NC(=O)[C@H](CCCCN)NC(=O)[C@H](CCCNC(=N)N)NC(=O)[C@H](C)NC(=O)[C@H](CCC(N)=O)NC(=O)[C@@H]2CCCN2C(=O)[C@H](Cc2c[nH]cn2)NC(=O)[C@H](CCC(=O)O)NC(=O)[C@H](CCC(N)=O)NC(=O)COCCOCCNC(=O)COCCOCCNC(=O)COCCOCCNC(=O)COCCOCCNC(=O)CC[C@H](NC(=O)CC[C@H](NC(=O)CC[C@H](NC(=O)CC[C@H](NC(=O)CC[C@H](NC(=O)CC[C@H](NC(=O)CCCCCCCCCCCCCCCCC(=O)O)C(=O)O)C(=O)O)C(=O)O)C(=O)O)C(=O)O)C(=O)O)CSSC[C@@H](C(=O)O)NC(=O)CNC(=O)[C@H](CC(C)C)NC(=O)CNC(=O)[C@H](CO)NC(=O)[C@H](CC(C)C)NC(=O)[C@H](CO)NC(=O)CNC1=O` [compound 1404] ({C18 diacid-γGlu-γGlu-γGlu-γGlu-γGlu-γGlu-AEEA-AEEA-AEEA-AEEA}-QEHPQARKYKGAQKKGLSQGCFGLPLDRIGSLSGLGC-OH; disulfide 21-37), which “hNPR2 0% HSA. [EC50% rel CNP]” value is on record?
**A.** 81.3%

**Q.** How did the “hNPR2 0% HSA. [EC50% rel CNP]” value turn out when `CC[C@H](C)[C@@H]1NC(=O)[C@H](CCCNC(=N)N)NC(=O)[C@H](CC(=O)O)NC(=O)[C@H](CC(C)C)NC(=O)[C@@H]2CCCN2C(=O)[C@H](CC(C)C)NC(=O)CNC(=O)[C@H](Cc2ccccc2)NC(=O)[C@@H](NC(=O)CNC(=O)[C@H](CO)NC(=O)[C@H](CO)NC(=O)[C@@H](NC(=O)CNC(=O)[C@@H](NC(=O)[C@H](CCCCN)NC(=O)[C@H](CCC(N)=O)NC(=O)[C@H](C)NC(=O)CNC(=O)[C@H](Cc2c[nH]cn2)NC(=O)[C@H](Cc2ccc(O)cc2)NC(=O)COCCOCCNC(=O)COCCOCCNC(=O)COCCOCCNC(=O)CC[C@H](NC(=O)CCCCCCCCCCCCCCCCC(=O)O)C(=O)O)[C@@H](C)O)C(C)C)CSSC[C@@H](C(=O)O)NC(=O)CNC(=O)[C@H](CC(C)C)NC(=O)CNC(=O)[C@H](CO)NC(=O)[C@H](CC(C)C)NC(=O)[C@H](CO)NC(=O)CNC1=O` [compound 1352] ({C18 diacid-γGlu-AEEA-AEEA-AEEA}-YHGAQKTGVSSGCFGLPLDRIGSLSGLGC-OH; disulfide 13-29) was run?
**A.** 38.6%

**Q.** For `CC[C@H](C)[C@@H]1NC(=O)[C@H](CCCNC(=N)N)NC(=O)[C@H](CC(=O)O)NC(=O)[C@H](CC(C)C)NC(=O)[C@@H]2CCCN2C(=O)[C@H](CC(C)C)NC(=O)CNC(=O)[C@H](Cc2ccccc2)NC(=O)[C@@H](NC(=O)CNC(=O)[C@H](CCC(N)=O)NC(=O)[C@H](CO)NC(=O)[C@H](CO)NC(=O)CNC(=O)[C@H](CCCCN)NC(=O)[C@H](CCCCN)NC(=O)[C@H](CCC(N)=O)NC(=O)[C@H](C)NC(=O)CNC(=O)[C@@H]2CCCN2C(=O)[C@H](C)NC(=O)[C@H](CCC(N)=O)NC(=O)CNC(=O)COCCOCCNC(=O)COCCOCCNC(=O)CC[C@H](NC(=O)CCCCCCCCCCCCCCCCC(=O)O)C(=O)O)CSSC[C@@H](C(=O)O)NC(=O)CNC(=O)[C@H](CC(C)C)NC(=O)CNC(=O)[C@H](CO)NC(=O)[C@H](CC(C)C)NC(=O)[C@H](CO)NC(=O)CNC1=O` [compound 9384] ({C18 diacid-γGlu-AEEA-AEEA}-GQAPGAQKKGSSQGCFGLPLDRIGSLSGLGC-OH; disulfide 15-31; C-terminus assumed), which “hNPR2 0% HSA. [EC50% rel CNP]” value is on record?
**A.** 53.7%

**Q.** With `CC[C@H](C)[C@@H]1NC(=O)[C@H](CCCNC(=N)N)NC(=O)[C@H](CC(=O)O)NC(=O)[C@H](CC(C)C)NC(=O)[C@@H]2CCCN2C(=O)[C@H](CC(C)C)NC(=O)CNC(=O)[C@H](Cc2ccccc2)NC(=O)[C@@H](NC(=O)CNC(=O)[C@H](CO)NC(=O)[C@H](CO)NC(=O)[C@H](CC(C)C)NC(=O)CNC(=O)[C@H](CCCCN)NC(=O)[C@H](CCCCN)NC(=O)[C@H](CCC(N)=O)NC(=O)[C@H](C)NC(=O)CNC(=O)[C@H](Cc2c[nH]cn2)NC(=O)[C@H](CCC(=O)O)NC(=O)COCCOCCNC(=O)COCCOCCNC(=O)CC[C@H](NC(=O)CCCCCCCCCCCCCCCCC(=O)O)C(=O)O)CSSC[C@@H](C(=O)O)NC(=O)CNC(=O)[C@H](CC(C)C)NC(=O)CNC(=O)[C@H](CO)NC(=O)[C@H](CC(C)C)NC(=O)[C@H](CO)NC(=O)CNC1=O` [compound 1310] ({C18 diacid-γGlu-AEEA-AEEA}-EHGAQKKGLSSGCFGLPLDRIGSLSGLGC-OH; disulfide 13-29) as the molecule, how does the “hNPR2 0% HSA. [EC50% rel CNP]” value read?
**A.** 10.4%
